Data published in patent publication US9447148B2, “Melanocortin-1 receptor-specific cyclic peptides” (Palatin Technologies, Inc., priority 2009, dated 2016).
Numbered stars: 1 amine (or outer) side, 2 acyl side, 3 side chain; on linkers, the order of the positions; unused ones are H or OH. Bridge positions count the residues as written; N and C are the ends. Square brackets hold non-standard residues; d marks the D form. Peptide text beside a SMILES is read from it. Suc = O=C(CCC(=O)[*:2])[*:1]; Dab = NCC[C@H](N)C(=O)O

biological target: hMCR-4 (Homo sapiens (Human), UniProt P32245); test: Competitive inhibition binding assay using [I125]-NDP-α-MSH, hMCR-4; conditions: membrane homogenates of HEK-293 cells, human recombinant receptor, averaged, read-out: MC-4 Ki (average)
Sequence (P32245 whole entry): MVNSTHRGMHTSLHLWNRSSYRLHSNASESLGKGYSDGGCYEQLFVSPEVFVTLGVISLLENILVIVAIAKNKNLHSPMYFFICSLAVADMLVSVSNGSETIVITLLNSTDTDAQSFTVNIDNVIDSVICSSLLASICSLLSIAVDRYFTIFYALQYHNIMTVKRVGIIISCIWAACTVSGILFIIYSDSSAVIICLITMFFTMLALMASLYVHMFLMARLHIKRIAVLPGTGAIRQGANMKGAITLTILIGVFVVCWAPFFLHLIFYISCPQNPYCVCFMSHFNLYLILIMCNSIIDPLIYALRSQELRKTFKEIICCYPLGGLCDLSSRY
Method: A competitive inhibition binding assay was performed using membrane homogenates prepared from HEK-293 cells that express recombinant hMCR-1a or hMCR-4 (in each instance where the h prefix refers to human), or alternatively membrane homogenates from B16-F10 mouse melanoma cells containing endogenous murine MCR-1. In the examples that follow, all MCR-1 and MCR-4 values are for human recombinant receptors, unless otherwise noted. Assays were performed in 96 well polypropylene round-bottom plates (VWR catalog number 12777-030). […] After incubation for 90 minutes at 37° C., the assay mixture was filtered onto GF/B Unifilter plates (Perkin-Elmer catalog number 6005177) and washed with 3 mL of ice-cold buffer per well. Filters were air dried and 35 μL of scintillation cocktail added to each well. Plates were counted in a Microbeta counter for bound radioactivity. […] Each assay was conducted in duplicate and the actual mean values are described, with results less than 0% reported as 0%. Ki values for peptides of the present invention were determined using Graph-Pad Prism® curve-fitting software.
(§1) Peptides of the following structures were synthesized and averaged MCR-1 and MCR-4 Ki values were determined as indicated. […] All results are expressed in nM except for Emax values, which are percentage values. Peptides with the captioned primary sequence were synthesized and purified as described in Section 5 above, with the resulting peptide having the structure depicted.

SMILES	Ki [nM]
CCCC[C@H](NC(C)=O)C(=O)N[C@H]1CCC(=O)NCC[C@@H](C(=O)N[C@@H](Cc2ccc3ccccc3c2)C(N)=O)NC(=O)[C@H](CCCNC(=N)N)NC(=O)[C@@H](Cc2ccccc2)NC(=O)[C@H](Cc2c[nH]cn2)NC1=O [Example 9.10, Ac-Nle-cyclo(Glu-His-D-Phe-Arg-Dab)-Nal 2-NH2]	3
CCCC[C@H](NC(C)=O)C(=O)N[C@H]1CCC(=O)NC[C@@H](C(=O)N[C@@H](Cc2c[nH]c3ccccc23)C(N)=O)NC(=O)[C@H](CCCNC(=N)N)NC(=O)[C@@H](Cc2ccccc2)NC(=O)[C@H](Cc2c[nH]cn2)NC1=O [Example 9.3, Ac-Nle-cyclo(Glu-His-D-Phe-Arg-Dap)-Trp-NH2]	358
CCCC[C@H](NC(C)=O)C(=O)N[C@H]1CCC(=O)NCCCC[C@@H](C(=O)N[C@@H](Cc2c[nH]c3ccccc23)C(N)=O)NC(=O)[C@H](CCCNC(=N)N)NC(=O)[C@@H](Cc2ccccc2)NC(=O)[C@H](Cc2c[nH]cn2)NC1=O [Example 9.1, Ac-Nle-cyclo(Glu-His-D-Phe-Arg-Lys)-Trp-NH2]	45
CCCC[C@H](NC(C)=O)C(=O)N[C@H]1CCC(=O)NCC[C@@H](C(=O)N[C@@H](Cc2c[nH]c3ccccc23)C(N)=O)NC(=O)[C@H](CCCNC(=N)N)NC(=O)[C@H](Cc2ccccc2)NC(=O)[C@H](Cc2c[nH]cn2)NC1=O [Example 9.8, Ac-Nle-cyclo(Glu-His-Phe-Arg-Dab)-Trp-NH2]	10000
CCCC[C@H](NC(C)=O)C(=O)N[C@H]1CCNC(=O)CCC(=O)NC[C@@H](C(=O)N[C@@H](Cc2c[nH]c3ccccc23)C(N)=O)NC(=O)[C@H](CCCNC(=N)N)NC(=O)[C@@H](Cc2ccccc2)NC(=O)[C@H](Cc2c[nH]cn2)NC1=O [Example 9.29]	325
CCCC[C@H](NC(C)=O)C(=O)N[C@H]1CCNC(=O)CCC(=O)NCC[C@@H](C(=O)N[C@@H](Cc2c[nH]c3ccccc23)C(N)=O)NC(=O)[C@H](CCCNC(=N)N)NC(=O)[C@@H](Cc2ccccc2)NC(=O)[C@H](Cc2c[nH]cn2)NC1=O [Example 9.27]	380
CCCC[C@H](NC(C)=O)C(=O)N[C@H]1CCC(=O)NCC[C@@H](C(=O)N[C@@H](Cc2c[nH]c3ccccc23)C(N)=O)NC(=O)[C@H](CCCNC(=N)N)NC(=O)[C@@H](Cc2ccccc2)NC(=O)[C@H](CCCNC(N)=O)NC1=O [Example 9.38, Ac-Nle-cyclo(Glu-Cit-D-Phe-Arg-Dab)-Trp-NH2]	98
CCCC[C@H](NC(C)=O)C(=O)N[C@H]1CCC(=O)NCC[C@@H](C(=O)N[C@@H](Cc2cccc3ccccc23)C(N)=O)NC(=O)[C@H](CCCNC(=N)N)NC(=O)[C@@H](Cc2ccccc2)NC(=O)[C@H](Cc2c[nH]cn2)NC1=O [Example 9.30, Ac-Nle-cyclo(Glu-His-D-Phe-Arg-Dab)-Nal 1-NH2]	0.75
CCCC[C@H](NC(C)=O)C(=O)N[C@H]1CCC(=O)NCC[C@@H](C(=O)N[C@@H](Cc2c[nH]c3ccccc23)C(N)=O)NC(=O)[C@H](CCCNC(=N)N)NC(=O)[C@@H](Cc2ccccc2)NC(=O)[C@H](CCCNC(=N)N)NC1=O [Example 9.37, Ac-Nle-cyclo(Glu-Arg-D-Phe-Arg-Dab)-Trp-NH2]	20
CC(=O)N[C@H](Cc1ccccc1)C(=O)N[C@H]1CCC(=O)NCC[C@@H](C(=O)N[C@@H](Cc2c[nH]c3ccccc23)C(N)=O)NC(=O)[C@H](CCCNC(=N)N)NC(=O)[C@@H](Cc2ccccc2)NC(=O)[C@H](Cc2c[nH]cn2)NC1=O [Example 9.12, Ac-D-Phe-cyclo(Glu-His-D-Phe-Arg-Dab)-Trp-NH2]	535
CCCC[C@H](NC(C)=O)C(=O)N[C@H]1CCC(=O)NCCC[C@@H](C(=O)N[C@@H](Cc2c[nH]c3ccccc23)C(N)=O)NC(=O)[C@H](CCCNC(=N)N)NC(=O)[C@@H](Cc2ccccc2)NC(=O)[C@H](Cc2c[nH]cn2)NC1=O [Example 9.6, Ac-Nle-cyclo(Glu-His-D-Phe-Arg-Orn)-Trp-NH2]	295
CCCC[C@H](NC(C)=O)C(=O)N[C@H]1CCC(=O)NCC[C@@H](C(=O)N[C@H](Cc2ccc3ccccc3c2)C(N)=O)NC(=O)[C@H](CCCNC(=N)N)NC(=O)[C@@H](Cc2ccccc2)NC(=O)[C@H](Cc2c[nH]cn2)NC1=O [Example 9.11, Ac-Nle-cyclo(Glu-His-D-Phe-Arg-Dab)-D-Nal 2-NH2]	0.095
CCCCCC(=O)N[C@H]1CCC(=O)NCC[C@@H](C(=O)N[C@@H](Cc2c[nH]c3ccccc23)C(N)=O)NC(=O)[C@H](CCCNC(=N)N)NC(=O)[C@@H](Cc2ccccc2)NC(=O)[C@H](Cc2c[nH]cn2)NC1=O [Example 9.17, CH3—(CH2)4—C(═O)-cyclo(Glu-His-D-Phe-Arg-Dab)-Trp-NH2]	110
CCCC[C@H](NC(C)=O)C(=O)N[C@H]1CNC(=O)CCC(=O)NC[C@@H](C(=O)N[C@@H](Cc2c[nH]c3ccccc23)C(N)=O)NC(=O)[C@H](CCCNC(=N)N)NC(=O)[C@@H](Cc2ccccc2)NC(=O)[C@H](Cc2c[nH]cn2)NC1=O [Example 9.28]	680
CCCC[C@H](NC(C)=O)C(=O)N[C@H]1CCC(=O)NCC[C@@H](C(=O)N[C@H](Cc2cccc3ccccc23)C(N)=O)NC(=O)[C@H](CCCNC(=N)N)NC(=O)[C@@H](Cc2ccccc2)NC(=O)[C@H](Cc2c[nH]cn2)NC1=O [Example 9.9, Ac-Nle-cyclo(Glu-His-D-Phe-Arg-Dab)-D-Nal 1-NH2]	2
N=C(N)NCCC[C@@H]1NC(=O)[C@@H](Cc2ccccc2)NC(=O)[C@H](Cc2c[nH]cn2)NC(=O)CCC(=O)NCC[C@@H](C(=O)N[C@@H](Cc2c[nH]c3ccccc23)C(N)=O)NC1=O [Example 9.14, cyclo(Suc-His-Phe-Arg-Dab)-Trp-NH2] (H[dF]R[Dab]W-NH2; linker N-4 via Suc)	10000

Next, values leading:

Ki [nM]	SMILES
33	CCCC[C@H](NC(C)=O)C(=O)N[C@H]1CCC(=O)NCC[C@@H](C(=O)N[C@H](Cc2c[nH]c3ccccc23)C(N)=O)NC(=O)[C@H](CCCNC(=N)N)NC(=O)[C@@H](Cc2ccccc2)NC(=O)[C@H](Cc2c[nH]cn2)NC1=O [Example 9.7, Ac-Nle-cyclo(Glu-His-D-Phe-Arg-Dab)-D-Trp-NH2]
95	CCCC[C@H](NC(C)=O)C(=O)N[C@H]1CCC(=O)NCC[C@@H](C(=O)N[C@@H](Cc2c[nH]c3ccccc23)C(N)=O)NC(=O)[C@H](CCCNC(=N)N)NC(=O)[C@@H](Cc2ccccc2)NC(=O)[C@H](CCCCN)NC1=O [Example 9.40, Ac-Nle-cyclo(Glu-Lys-D-Phe-Arg-Dab)-Trp-NH2]
10000	CCCC[C@H](NC(C)=O)C(=O)N[C@H]1CCC(=O)NCC[C@@H](C(N)=O)NC(=O)[C@H](CCCNC(=N)N)NC(=O)[C@@H](Cc2ccccc2)NC(=O)[C@@H]2CCCN2C1=O [Example 9.65, Ac-Nle-cyclo(Glu-Pro-D-Phe-Arg-Dab)-NH2]
98	CCCC[C@H](NC(C)=O)C(=O)N[C@H]1CCC(=O)NCC[C@@H](C(=O)N[C@@H](Cc2c[nH]c3ccccc23)C(N)=O)NC(=O)[C@H](CCCNC(=N)N)NC(=O)[C@@H](Cc2ccccc2)NC(=O)[C@H](CCN)NC1=O [Example 9.41, Ac-Nle-cyclo(Glu-Dab-D-Phe-Arg-Dab)-Trp-NH2]
45	CCCC[C@H](NC(C)=O)C(=O)N[C@H]1CCC(=O)NCC[C@@H](C(=O)N[C@@H](Cc2c[nH]c3ccccc23)C(N)=O)NC(=O)[C@H](CCCNC(=N)N)NC(=O)[C@@H](Cc2ccccc2)NC(=O)[C@H](CCCN)NC1=O [Example 9.42, Ac-Nle-cyclo(Glu-Orn-D-Phe-Arg-Dab)-Trp-NH2]
455	CCCC[C@H](NC(C)=O)C(=O)N[C@H]1CCC(=O)NCC[C@@H](C(=O)N[C@@H](Cc2c[nH]c3ccccc23)C(N)=O)NC(=O)[C@H](CCCNC(=N)N)NC(=O)[C@@H](Cc2ccccc2)NC(=O)[C@H](C)NC1=O [Example 9.36, Ac-Nle-cyclo(Glu-Ala-D-Phe-Arg-Dab)-Trp-NH2]
110	CCCC[C@H](NC(C)=O)C(=O)N[C@H]1CCC(=O)NCC[C@@H](C(=O)N[C@@H](Cc2c[nH]c3ccccc23)C(N)=O)NC(=O)[C@H](CCCNC(=N)N)NC(=O)[C@@H](Cc2ccccc2)NC(=O)[C@H](Cc2c[nH]cn2)NC1=O [Example 9.2, Ac-Nle-cyclo(Glu-His-D-Phe-Arg-Dab)-Trp-NH2]

biological target: hMCR-1 (Homo sapiens (Human), UniProt Q01726); test: Assay for agonist activity: intracellular cAMP accumulation in HBL human melanoma cells; assay type: cell-based; conditions: HBL cells, maximum efficacy compared to reference agonist NDP-α-MSH
Sequence (Q01726 whole entry): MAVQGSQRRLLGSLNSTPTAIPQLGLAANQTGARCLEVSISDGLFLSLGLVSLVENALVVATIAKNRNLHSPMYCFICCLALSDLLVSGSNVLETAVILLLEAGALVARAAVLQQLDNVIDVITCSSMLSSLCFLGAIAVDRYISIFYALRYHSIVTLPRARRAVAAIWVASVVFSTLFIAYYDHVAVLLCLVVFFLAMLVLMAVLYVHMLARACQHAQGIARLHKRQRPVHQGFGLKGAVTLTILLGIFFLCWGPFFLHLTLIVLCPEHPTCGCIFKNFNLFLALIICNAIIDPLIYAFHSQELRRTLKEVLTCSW
Method: Confluent HBL cells that express hMCR-1 or HEK-293 cells that express recombinant hMCR-4 were detached from culture plates by incubation in enzyme-free cell dissociation buffer. Dispersed cells were suspended in Earle's Balanced Salt Solution containing 10 mM HEPES (pH 7.5), 1 mM MgCl2, 1 mM glutamine, 0.5% albumin and 0.3 mM 3-isobutyl-1-methyl-xanthine (IBMX), a phosphodiesterase inhibitor. The cells were plated in 96-well plates at a density of 0.4×10^5 cells per well for HBL cells and 0.5×10^5 cells per well for HEK-293 cells and pre-incubated for 10 minutes. Cells were exposed for 15 minutes at 37° C. to peptides of the present invention dissolved in DMSO (final DMSO concentration of 1%) at a concentration range of 0.05-5000 nM in a total assay volume of 200 μL. […] Data analysis was performed by nonlinear regression analysis with Graph-Pad Prism® software.
as §1

MC-1 Emax (average; cAMP HBL) [% ^]	SMILES
108	CCCC[C@H](NC(C)=O)C(=O)N[C@H]1CCC(=O)NCC[C@@H](C(=O)N[C@@H](Cc2c[nH]c3ccccc23)C(N)=O)NC(=O)[C@H](CCCNC(=N)N)NC(=O)[C@@H](Cc2ccccc2)NC(=O)[C@H](CCN)NC1=O [Example 9.54, Ac-Nle-cyclo(Glu-Dab-D-Phe-Arg-Dab)-Trp-NH2]
86	CCCC[C@H](NC(C)=O)C(=O)N[C@H]1CCC(=O)NCC[C@@H](C(=O)N[C@@H](Cc2c[nH]c3ccccc23)C(N)=O)NC(=O)[C@H](CCCNC(=N)N)NC(=O)[C@@H](Cc2ccccc2)NC(=O)[C@H](C)NC1=O [Example 9.49, Ac-Nle-cyclo(Glu-Ala-D-Phe-Arg-Dab)-Trp-NH2]
